Results as given in patent publication US12084434B2 (Scorpion Therapeutics, Inc., priority 2021, dated 2024).
Read-outs that look alike come from different tables or passages of the source.

Key:
[1] = target: T1, PI3Kα H1047R protein (p110-α H1047R complexed with truncated p85-α) (Homo sapiens, UniProt P42336, H1047R); test: Surface Plasmon Resonance (SPR) binding, wortmannin-blocked protein; details: Biacore 8K, ATP site blocked with 1 μM wortmannin, 25° C.
T1 construct: The protein contained a full-length p110-α subunit harboring the H1047R mutation
T1 sequence (P42336 whole entry H1047R, the tested form may be a part): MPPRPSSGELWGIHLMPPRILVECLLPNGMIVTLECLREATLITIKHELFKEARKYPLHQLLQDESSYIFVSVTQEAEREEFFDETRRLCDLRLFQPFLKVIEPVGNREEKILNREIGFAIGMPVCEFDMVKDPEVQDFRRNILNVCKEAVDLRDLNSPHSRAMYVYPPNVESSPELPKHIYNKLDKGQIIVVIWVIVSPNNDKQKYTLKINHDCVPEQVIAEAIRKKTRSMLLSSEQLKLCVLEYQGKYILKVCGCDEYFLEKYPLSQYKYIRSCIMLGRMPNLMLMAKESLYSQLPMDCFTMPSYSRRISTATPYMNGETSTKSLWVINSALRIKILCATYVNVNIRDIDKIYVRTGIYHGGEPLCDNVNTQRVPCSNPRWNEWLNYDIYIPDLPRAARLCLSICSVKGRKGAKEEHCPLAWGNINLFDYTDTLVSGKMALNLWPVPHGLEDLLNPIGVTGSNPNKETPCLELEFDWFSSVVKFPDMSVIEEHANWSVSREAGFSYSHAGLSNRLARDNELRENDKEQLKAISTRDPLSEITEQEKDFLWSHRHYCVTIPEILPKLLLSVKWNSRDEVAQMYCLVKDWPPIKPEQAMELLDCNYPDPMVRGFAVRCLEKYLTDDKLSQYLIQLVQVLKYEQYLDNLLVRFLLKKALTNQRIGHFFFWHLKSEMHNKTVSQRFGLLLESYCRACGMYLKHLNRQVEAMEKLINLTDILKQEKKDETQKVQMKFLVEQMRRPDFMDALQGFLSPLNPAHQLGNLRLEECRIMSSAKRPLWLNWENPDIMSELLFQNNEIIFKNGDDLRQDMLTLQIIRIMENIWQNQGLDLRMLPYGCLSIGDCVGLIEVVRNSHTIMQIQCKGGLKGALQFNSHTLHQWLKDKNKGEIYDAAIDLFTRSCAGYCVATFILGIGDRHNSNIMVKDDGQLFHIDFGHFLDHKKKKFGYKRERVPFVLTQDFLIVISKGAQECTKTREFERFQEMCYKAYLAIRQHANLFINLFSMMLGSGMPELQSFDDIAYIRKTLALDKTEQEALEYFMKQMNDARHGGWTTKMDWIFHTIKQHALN
T1 sequence (P27986 322-694 partner limits assumed): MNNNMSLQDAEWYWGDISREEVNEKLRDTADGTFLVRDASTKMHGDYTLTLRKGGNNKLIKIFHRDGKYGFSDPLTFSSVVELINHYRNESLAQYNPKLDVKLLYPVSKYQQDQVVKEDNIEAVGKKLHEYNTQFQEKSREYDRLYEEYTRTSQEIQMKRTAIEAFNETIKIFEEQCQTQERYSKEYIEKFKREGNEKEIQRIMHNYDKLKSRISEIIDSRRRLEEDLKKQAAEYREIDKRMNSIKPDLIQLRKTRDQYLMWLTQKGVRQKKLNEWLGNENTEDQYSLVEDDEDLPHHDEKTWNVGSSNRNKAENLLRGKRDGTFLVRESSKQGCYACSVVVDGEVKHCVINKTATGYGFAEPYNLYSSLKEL
Description: Surface Plasmon Resonance (SPR)
SPR experiments were performed on a Biacore 8K instrument. A biotinylated recombinant PI3Kα H1047R protein was used in this study. The protein contained a full-length p110-α subunit harboring the H1047R mutation with an N-terminal AviTag, complexed with a truncated p85-α subunit (amino acid residues 322-694). The protein was first incubated with 1 μM wortmannin for 30 min at RT to covalently block the ATP binding site, then immobilized onto a streptavidin sensor chip by flowing the protein through the sensor chip at typically 20 μg/mL concentration and 2 μL/min flow rate for 1200 seconds. Compound binding affinities were measured in the multi-cycle kinetics mode, at 90 μL/min flow rate with 90 seconds association time and 240 seconds dissociation time. The running buffer contained 50 mM Tris, pH 7.5, 150 mM NaCl, 0.01% Brij35, 1 mM DTT, 1 mM MgCl2, 0.05% Tween-20 and 2% DMSO. Temperature was maintained at 25° C. during experiments.

[2] = system: T47D pAKT (S473), PI3Kα H1047R mutation present; test: HTRF pAKT-T47D;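 further: assay medium was RPMI with 10% FBS and 0.2 units/ml bovine insulin, without phenol red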
Description: Homogenous Time-Resolved Fluorescence (HTRF)—pAKT-T47D
Compounds were assayed using homogeneous time-resolved fluorescence (HTRF).
Gibco RPMI 1640 Medium, no phenol red; Gibco RPMI 1640 Medium; Gibco Trypsin-EDTA (0.5%), no phenol red; Gibco DPBS; Trypan blue solution 0.4% (Corning); Avantor Seradigm Premium Grade Fetal Bovine Serum (FBS); Greiner 784080-384 well TC treated white plates; pAKT (Ser473) HTRF; Gibco Insulin, human recombinant, zinc solution; Gibco Recovery Cell Culture Freezing Medium; Countess II FL Automated Cell Counter (ThermoFisher); Countess II Slides (ThermoFisher); Microscope; and PHERAstar FSX Microplate Reader (BMG LABTECH, Inc.).
The scinamic cell line ID was T47D.1, the HTRF detection was pAKT (S473), a PI3Kα H1047R mutation was present, the seeding density was 5000, the timepoint was 1 hour, and the medium used was RPMI+10% FBS (no phenol red)+0.2 units/ml bovine insulin.
• The cell density was not permitted to reach 100% confluence. The cells were split 1:5 when they reached ˜80% confluence. • Cells were split twice a week (Mon and Fri). • Cells over passage 18 were not used (˜2 months of maintenance). • Antibiotics were not used for tissue culture maintenance or assays. […] Protocol Day1
The procedure was as follows: • 1. Prepared ARP: • a. Stamped 12.5 nL from 10 μmM source plate to destination plate using Echo. Sealed plate immediately and froze at −20° C. if it was not used on the same day. • b. If a frozen ARP was used, the plate was thawed and spun at 1000 rpm×1 min. • 2. Preparation of cells (adherent): • a. Aspirated media from cells. Washed cells with sterile 1XPBS. Aspirated PBS and added appropriate amount of Trypsin. • b. Once cells were fully trypsinized, added appropriate media to resuspend cells. Transferred cells to a 15 mL or 50 mL conical tube. • c. Counted cells on the Countess II Cell Counter. • 3. Plating of cells: • a. Prepared cells at appropriate plating density. Dispensed 12 μL of diluted cells per well of a Greiner 784080-384 well TC treated white plate using a Multidrop Combi to columns 1-23. Added 12 uL of appropriate phenol free media only to column 24. • b. Placed plates in 37° C. tissue culture incubator for appropriate treatment time (refer to “Assay” table). • 4. Prepared HTRF Lysis Buffer • a. Calculate the amount of HTRF lysis buffer master mix needed to perform the desired experiments plus any extra dead volume required for dispensing (4 μL required per well). […] Add 4 uL Lysis buffer master mix to all wells with sample or DMSO. Centrifuge the plates for 1 minute at 1000 rpm. • c. Incubate at room temperature for 30 minutes. • 5. Prepared HTRF Antibody • a.

[3] = Homo sapiens, T47D, 1 h, read-out: T47D pAKT IC50 (nM), T47D.1 cells, pAKT (S473) HTRF, 1 hour
[4] = read-out: T47D pAKT IC50, T47D.1 cells, pAKT (S473) HTRF, 1 hour

Row | Structure (SMILES) | Kd [1] | IC50 [2, 3] | IC50 [2, 4]
1 | Cc1c([C@@H](NC(=O)N[C@H]2CCCS(=O)(=O)C2)C(C)C)oc2ccc(F)cc12 [Compound 44, 1-((S)-1,1-dioxidotetrahydro-2H-thiopyran-3-yl)-3-((S)-1-(5-fluoro-3-methylbenzofuran-2-yl)-2-methylpropyl)urea] | 250 to 500 nM | 1000 to 5000 nM | 
2 | Cc1c([C@@H](NC(=O)Nc2cccc(S(C)(=N)=O)c2)C(C)C)oc2ccc(F)cc12 (single isomer, unassigned) [Compound 30] | 100 to 250 nM |  | 1000 to 5000 nM
3 | Cc1c([C@@H](NC(=O)Nc2cncc(C#N)c2)C(C)C)oc2ccc(F)cc12 [Compound 35, (S)-1-(5-cyanopyridin-3-yl)-3-(1-(5-fluoro-3-methylbenzofuran-2-yl)-2-methylpropyl)urea] | 250 to 500 nM | 1000 to 5000 nM | 
4 | Cc1c([C@@H](NC(=O)Nc2cncc(S(C)(=O)=O)c2)C(C)C)oc2ccc(F)cc12 [Compound 27, (S)-1-(1-(5-fluoro-3-methylbenzofuran-2-yl)-2-methylpropyl)-3-(5-(methylsulfonyl)pyridin-3-yl)urea] | < 100 nM | < 1000 nM | 
5 | Cc1c([C@@H](NC(=O)Nc2ccc(S(N)(=O)=O)nc2)C2CC2)oc2ccc(F)cc12 [Compound 48, (S)-5-(3-(cyclopropyl(5-fluoro-3-methylbenzofuran-2-yl)methyl)ureido)pyridine-2-sulfonamide] | 100 to 250 nM | 1000 to 5000 nM | 
6 | Cc1c([C@H](C)NC(=O)Nc2cccc(C(N)=O)c2)oc2ccc(F)cc12 [Compound 3, (S)-3-(3-(1-(5-fluoro-3-methylbenzofuran-2-yl)ethyl)ureido) benzamide] | ≥ 500 nM | > 5000 nM | 
7 | Cc1c([C@@H](NC(=O)Nc2cnc(N3CCC3)nc2)C(C)C)oc2ccc(F)cc12 [Compound 74] | < 100 nM | < 1000 nM | 
8 | Cc1c([C@@H](NC(=O)Nc2cncc(C(=O)N3CCC3)c2)C(C)C)oc2ccc(F)cc12 [Compound 63, (S)-1-(5-(azetidine-1-carbonyl)pyridin-3-yl)-3-(1-(5-fluoro-3-methylbenzofuran-2-yl)-2-methylpropyl)urea] | < 100 nM | < 1000 nM | 
9 | Cc1c([C@@H](NC(=O)Nc2ccc(C(=O)N(C)C)nc2)C(C)C)oc2ccc(F)cc12 [Compound 65, (S)-5-(3-(1-(5-fluoro-3-methylbenzofuran-2-yl)-2-methylpropyl)ureido)-N,N-dimethylpicolinamide] | 100 to 250 nM | 1000 to 5000 nM | 
10 | Cc1c([C@@H](NC(=O)Nc2cncc(C(N)=O)c2)C(C)C)oc2ccc(F)cc12 [Compound 24, (S)-5-(3-(1-(5-fluoro-3-methylbenzofuran-2-yl)-2-methylpropyl)ureido) nicotinamide] | < 100 nM | < 1000 nM | 
11 | CNC(=O)c1cncc(NC(=O)N[C@H](c2oc3ccc(F)cc3c2C)C(C)C)c1 [Compound 60, (S)-5-(3-(1-(5-fluoro-3-methylbenzofuran-2-yl)-2-methylpropyl)ureido)-N-methylnicotinamide] | 100 to 250 nM | 1000 to 5000 nM | 
12 | Cc1c([C@@H](NC(=O)Nc2cccnc2)C(C)C)oc2ccc(F)cc12 [Compound 1, (S)-1-(1-(5-fluoro-3-methylbenzofuran-2-yl)-2-methylpropyl)-3-(pyridin-3-yl)urea] | 250 to 500 nM | 1000 to 5000 nM | 
13 | Cc1c([C@@H](NC(=O)N[C@H]2CCCN(S(C)(=O)=O)C2)C(C)C)oc2ccc(F)cc12 (single isomer, unassigned) [Compound 20] | 100 to 250 nM | 1000 to 5000 nM | 
14 | Cc1c([C@@H](NC(=O)Nc2ccc(C(N)=O)nc2)C(C)C)oc2ccc(F)cc12 [Compound 41, (S)-5-(3-(1-(5-fluoro-3-methylbenzofuran-2-yl)-2-methylpropyl)ureido)picolinamide] | < 100 nM | < 1000 nM | 
15 | CCS(=O)(=O)c1ccc(NC(=O)N[C@H](C)c2oc3ccc(F)cc3c2C)cc1 [Compound 13, (R)-1-(4-(ethylsulfonyl)phenyl)-3-(1-(5-fluoro-3-methylbenzofuran-2-yl)ethyl)urea] | ≥ 500 nM | > 5000 nM | 
16 | Cc1c([C@@H](NC(=O)Nc2ccc(C(=O)N3CC(F)C3)nc2)C(C)C)oc2ccc(F)cc12 [Compound 64, (S)-1-(1-(5-fluoro-3-methylbenzofuran-2-yl)-2-methylpropyl)-3-(6-(3-fluoroazetidine-1-carbonyl)pyridin-3-yl)urea] | < 100 nM | 1000 to 5000 nM | 
17 | Cc1c(C(NC(=O)Nc2cnc(N3CCC3)nc2)C(F)(F)F)oc2ccc(F)cc12 (single isomer, unassigned) [Compound 69, 1-(2-(azetidin-1-yl)pyrimidin-5-yl)-3-(2,2,2-trifluoro-1-(5-fluoro-3-methylbenzofuran-2-yl)ethyl)urea] | < 100 nM | < 1000 nM | 
18 | Cc1c([C@@H](NC(=O)Nc2cnc(N)nc2)C(C)C)oc2ccc(F)cc12 [Compound 39, (S)-1-(2-aminopyrimidin-5-yl)-3-(1-(5-fluoro-3-methylbenzofuran-2-yl)-2-methylpropyl)urea] | < 100 nM | < 1000 nM | 
19 | Cc1c([C@@H](NC(=O)Nc2ccnc(C(N)=O)c2)C(C)C)oc2ccc(F)cc12 [Compound 40, (S)-4-(3-(1-(5-fluoro-3-methylbenzofuran-2-yl)-2-methylpropyl)ureido)picolinamide] | 250 to 500 nM | 1000 to 5000 nM | 
20 | Cc1c([C@@H](C)NC(=O)Nc2ccc(S(N)(=O)=O)cc2)oc2ccc(F)cc12 [Compound 12, (R)-4-(3-(1-(5-fluoro-3-methylbenzofuran-2-yl)ethyl)ureido) benzenesulfonamide] | ≥ 500 nM |  | 1000 to 5000 nM
21 | Cc1c([C@@H](NC(=O)Nc2ccc(N3CCC3)nc2)C(C)C)oc2ccc(F)cc12 [Compound 71, (S)-1-(6-(azetidin-1-yl)pyridin-3-yl)-3-(1-(5-fluoro-3-methylbenzofuran-2-yl)-2-methylpropyl) urea] | < 100 nM | < 1000 nM | 
22 | Cc1c([C@@H](NC(=O)Nc2cccc(S(C)(=N)=O)c2)C(C)C)oc2ccc(F)cc12 (single isomer, unassigned) [Compound 29] | 100 to 250 nM | 1000 to 5000 nM | 
23 | Cc1c([C@@H](NC(=O)N[C@@H]2CCCS(=O)(=O)C2)C(C)C)oc2ccc(F)cc12 [Compound 43, 1-((R)-1,1-dioxidotetrahydro-2H-thiopyran-3-yl)-3-((S)-1-(5-fluoro-3-methylbenzofuran-2-yl)-2-methylpropyl)urea] | 100 to 250 nM | 1000 to 5000 nM | 
24 | CC(C)C(NC(=O)Nc1cccc(C(N)=O)c1)c1cc2cc(F)ccc2o1 (racemic) [Compound 50, 3-(3-(1-(5-fluorobenzofuran-2-yl)-2-methylpropyl)ureido)benzamide] | 100 to 250 nM | > 5000 nM | 
25 | Cc1c(C(NC(=O)Nc2cnc(N)nc2)C(F)(F)F)oc2ccc(F)cc12 (racemic) [Compound 68, 1-(2-aminopyrimidin-5-yl)-3-(2,2,2-trifluoro-1-(5-fluoro-3-methylbenzofuran-2-yl)ethyl)urea] | < 100 nM | < 1000 nM | 
26 | Cc1c(C(NC(=O)Nc2cccc(C(N)=O)c2)C(C)C)oc2ccc(F)c(F)c12 (racemic) [Compound 54, 3-(3-(1-(4,5-difluoro-3-methylbenzofuran-2-yl)-2-methylpropyl)ureido)benzamide] | 100 to 250 nM | > 5000 nM | 
27 | Cc1c([C@@H](NC(=O)Nc2ccc3c(c2)C(=O)NC3)C(C)C)oc2ccc(F)cc12 [Compound 34, (S)-1-(1-(5-fluoro-3-methylbenzofuran-2-yl)-2-methylpropyl)-3-(3-oxoisoindolin-5-yl)urea] | < 100 nM | 1000 to 5000 nM | 
28 | Cc1c([C@@H](NC(=O)N[C@H]2CCC[C@H](C(N)=O)C2)C(C)C)oc2ccc(F)cc12 [Compound 31, (1S,3S)-3-(3-((S)-1-(5-fluoro-3-methylbenzofuran-2-yl)-2-methylpropyl)ureido) cyclohexane-1-carboxamide] | 250 to 500 nM | > 5000 nM | 
29 | Cc1c([C@@H](NC(=O)Nc2cn[nH]c2)C(C)C)oc2ccc(F)cc12 [Compound 47, (S)-1-(1-(5-fluoro-3-methylbenzofuran-2-yl)-2-methylpropyl)-3-(1H-pyrazol-4-yl)urea] | 100 to 250 nM | 1000 to 5000 nM | 
30 | Cc1c([C@@H](NC(=O)Nc2cnc(C(=O)N(C)C)nc2)C(C)C)oc2ccc(F)cc12 [Compound 59, (S)-5-(3-(1-(5-fluoro-3-methylbenzofuran-2-yl)-2-methylpropyl)ureido)-N,N-dimethylpyrimidine-2-carboxamide] | 100 to 250 nM | < 1000 nM | 
